Experimental data published in ChEMBL document CHEMBL1138574, “Regioselective synthesis and stereochemical structure of anti-tumor active dispiro[3H-indole-3,2'-pyrrolidine-3',3''-piperidine]-2(1H),4''-diones” (2009).

System: Rattus norvegicus
Test: Antiinflammatory activity in Wister albino rat assessed as inhibition of carrageenan-induced paw oedema at 50 mg/kg, ip administered 1 hr before carrageenan challenge measured after 3 hrs of induction of inflammation relative to control
Assay type: functional
Conditions: route intraperitoneal

Q: For `CN1C/C(=C\c2ccc(Cl)cc2)C(=O)[C@]2(C1)[C@@H](c1ccc(Cl)cc1)CN(C)[C@@]21C(=O)N(C)c2ccccc21`, which inhibition in vivo at 50 mg/kg is on record?
A: Its inhibition in vivo at 50 mg/kg is 44.5%.

System: HOP-62
Test: Antitumor activity against human HOP62 cells assessed as cell growth at 10 uM after 48 hrs by sulforhodamine B assay
Assay type: functional
Conditions: HOP-62, 48 h, read-out: Activity

Q: For `CN1C/C(=C\c2ccc(Cl)cc2)C(=O)[C@]2(C1)[C@@H](c1ccc(Cl)cc1)CN(C)[C@@]21C(=O)N(C)c2ccccc21`, which growth at 10 µM is on record?
A: Its growth at 10 µM is 71%.

System: BT-549
Test: Antitumor activity against human BT549 cells assessed as cell growth at 10 uM after 48 hrs by sulforhodamine B assay
Assay type: functional
Conditions: BT-549, 48 h, read-out: Activity

Q: For `CN1C/C(=C\c2ccc(Cl)cc2)C(=O)[C@]2(C1)[C@@H](c1ccc(Cl)cc1)CN(C)[C@@]21C(=O)N(C)c2ccccc21`, which growth at 10 µM is on record?
A: The growth at 10 µM was 80.3%.

System: COLO 205
Test: Antitumor activity against human COLO205 cells assessed as cell growth at 10 uM after 48 hrs by sulforhodamine B assay
Assay type: functional
Conditions: COLO 205, 48 h, read-out: Activity

Q: For `CN1C/C(=C\c2ccc(Cl)cc2)C(=O)[C@]2(C1)[C@@H](c1ccc(Cl)cc1)CN(C)[C@@]21C(=O)N(C)c2ccccc21`, which growth at 10 µM is on record?
A: Its growth at 10 µM is 99.6%.

System: SK-MEL-2
Test: Antitumor activity against human SK-MEL-2 cells assessed as cell growth at 10 uM after 48 hrs by sulforhodamine B assay
Assay type: functional
Conditions: SK-MEL-2, 48 h, read-out: Activity

Q: How did the growth at 10 µM turn out when `CN1C/C(=C\c2ccc(Cl)cc2)C(=O)[C@]2(C1)[C@@H](c1ccc(Cl)cc1)CN(C)[C@@]21C(=O)N(C)c2ccccc21` was run?
A: The growth at 10 µM was 71.9%.

System: SF-295
Test: Antitumor activity against human SF295 cells assessed as cell growth at 10 uM after 48 hrs by sulforhodamine B assay
Assay type: functional
Conditions: SF-295, 48 h, read-out: Activity

Q: For `CN1C/C(=C\c2ccc(Cl)cc2)C(=O)[C@]2(C1)[C@@H](c1ccc(Cl)cc1)CN(C)[C@@]21C(=O)N(C)c2ccccc21`, which growth at 10 µM is on record?
A: Its growth at 10 µM is 65.6%.

System: HCT-116
Test: Antitumor activity against human HCT116 cells assessed as cell growth at 10 uM after 48 hrs by sulforhodamine B assay
Assay type: functional
Conditions: HCT-116, 48 h, read-out: Activity

Q: How did the growth at 10 µM turn out when `CN1C/C(=C\c2ccc(Cl)cc2)C(=O)[C@]2(C1)[C@@H](c1ccc(Cl)cc1)CN(C)[C@@]21C(=O)N(C)c2ccccc21` was run?
A: Its growth at 10 µM is 29.9%.

System: HCC 2998
Test: Antitumor activity against human HCC2998 cells assessed as cell growth at 10 uM after 48 hrs by sulforhodamine B assay
Assay type: functional
Conditions: HCC 2998, 48 h, read-out: Activity

Q: For `CN1C/C(=C\c2ccc(Cl)cc2)C(=O)[C@]2(C1)[C@@H](c1ccc(Cl)cc1)CN(C)[C@@]21C(=O)N(C)c2ccccc21`, which growth at 10 µM is on record?
A: The growth at 10 µM was 71.9%.

System: T47D
Test: Antitumor activity against human T47D cells assessed as cell growth at 10 uM after 48 hrs by sulforhodamine B assay
Assay type: functional
Conditions: read-out: Activity

Q: Which growth at 10 µM does the source give for `CN1C/C(=C\c2ccc(Cl)cc2)C(=O)[C@]2(C1)[C@@H](c1ccc(Cl)cc1)CN(C)[C@@]21C(=O)N(C)c2ccccc21` here?
A: The growth at 10 µM was 46.7%.

System: MDA-MB-231
Test: Antitumor activity against human MDA-MB-231 cells assessed as cell growth at 10 uM after 48 hrs by sulforhodamine B assay
Assay type: functional
Conditions: MDA-MB-231, 48 h, read-out: Activity

Q: How did the growth at 10 µM turn out when `CN1C/C(=C\c2ccc(Cl)cc2)C(=O)[C@]2(C1)[C@@H](c1ccc(Cl)cc1)CN(C)[C@@]21C(=O)N(C)c2ccccc21` was run?
A: Its growth at 10 µM is 70.4%.

System: K562
Test: Antitumor activity against human K562 cells assessed as cell growth at 10 uM after 48 hrs by sulforhodamine B assay
Assay type: functional
Conditions: K562, 48 h, read-out: Activity

Q: Which growth at 10 µM does the source give for `CN1C/C(=C\c2ccc(Cl)cc2)C(=O)[C@]2(C1)[C@@H](c1ccc(Cl)cc1)CN(C)[C@@]21C(=O)N(C)c2ccccc21` here?
A: Its growth at 10 µM is 30.4%.

System: MDA-MB-435
Test: Antitumor activity against human MDA-MB-435 cells assessed as cell growth at 10 uM after 48 hrs by sulforhodamine B assay
Assay type: functional
Conditions: MDA-MB-435, 48 h, read-out: Activity

Q: Which growth at 10 µM does the source give for `CN1C/C(=C\c2ccc(Cl)cc2)C(=O)[C@]2(C1)[C@@H](c1ccc(Cl)cc1)CN(C)[C@@]21C(=O)N(C)c2ccccc21` here?
A: Its growth at 10 µM is 87.8%.

System: Rattus norvegicus
Test: Antiinflammatory activity in Wister albino rat assessed as inhibition of carrageenan-induced paw oedema at 50 mg/kg, ip administered 1 hr before carrageenan challenge measured after 24 hrs of induction of inflammation relative to control
Assay type: functional
Conditions: route intraperitoneal

Q: With `CN1C/C(=C\c2ccc(Cl)cc2)C(=O)[C@]2(C1)[C@@H](c1ccc(Cl)cc1)CN(C)[C@@]21C(=O)N(C)c2ccccc21` as the compound, how does the inhibition in vivo at 50 mg/kg read?
A: Its inhibition in vivo at 50 mg/kg is 49.3%.

System: MDA-MB-468
Test: Antitumor activity against human MDA-MB-468 cells assessed as cell growth at 10 uM after 48 hrs by sulforhodamine B assay
Assay type: functional
Conditions: MDA-MB-468, 48 h, read-out: Activity

Q: How did the growth at 10 µM turn out when `CN1C/C(=C\c2ccc(Cl)cc2)C(=O)[C@]2(C1)[C@@H](c1ccc(Cl)cc1)CN(C)[C@@]21C(=O)N(C)c2ccccc21` was run?
A: The growth at 10 µM was 66.9%.

System: HCT-15
Test: Antitumor activity against human HCT15 cells assessed as cell growth at 10 uM after 48 hrs by sulforhodamine B assay
Assay type: functional
Conditions: HCT-15, 48 h, read-out: Activity

Q: For `CN1C/C(=C\c2ccc(Cl)cc2)C(=O)[C@]2(C1)[C@@H](c1ccc(Cl)cc1)CN(C)[C@@]21C(=O)N(C)c2ccccc21`, which growth at 10 µM is on record?
A: Its growth at 10 µM is 76.2%.

System: NCI-H522
Test: Antitumor activity against human NCI-H522 cells assessed as cell growth at 10 uM after 48 hrs by sulforhodamine B assay
Assay type: functional
Conditions: NCI-H522, 48 h, read-out: Activity

Q: For `CN1C/C(=C\c2ccc(Cl)cc2)C(=O)[C@]2(C1)[C@@H](c1ccc(Cl)cc1)CN(C)[C@@]21C(=O)N(C)c2ccccc21`, which growth at 10 µM is on record?
A: Its growth at 10 µM is 56.4%.

System: CCRF-CEM
Test: Antitumor activity against human CCRF-CEM cells assessed as cell growth at 10 uM after 48 hrs by sulforhodamine B assay
Assay type: functional
Conditions: read-out: Activity

Q: Which growth at 10 µM does the source give for `CN1C/C(=C\c2ccc(Cl)cc2)C(=O)[C@]2(C1)[C@@H](c1ccc(Cl)cc1)CN(C)[C@@]21C(=O)N(C)c2ccccc21` here?
A: The growth at 10 µM was 31.5%.

System: NCI-H322M
Test: Antitumor activity against human NCI-H322M cells assessed as cell growth at 10 uM after 48 hrs by sulforhodamine B assay
Assay type: functional
Conditions: read-out: Activity

Q: How did the growth at 10 µM turn out when `CN1C/C(=C\c2ccc(Cl)cc2)C(=O)[C@]2(C1)[C@@H](c1ccc(Cl)cc1)CN(C)[C@@]21C(=O)N(C)c2ccccc21` was run?
A: Its growth at 10 µM is 79.1%.

System: ACHN
Test: Antitumor activity against human ACHN cells assessed as cell growth at 10 uM after 48 hrs by sulforhodamine B assay
Assay type: functional
Conditions: read-out: Activity

Q: With `CN1C/C(=C\c2ccc(Cl)cc2)C(=O)[C@]2(C1)[C@@H](c1ccc(Cl)cc1)CN(C)[C@@]21C(=O)N(C)c2ccccc21` as the compound, how does the growth at 10 µM read?
A: The growth at 10 µM was 57.5%.

System: HT-29
Test: Antitumor activity against human HT-29 cells assessed as cell growth at 10 uM after 48 hrs by sulforhodamine B assay
Assay type: functional
Conditions: HT-29, 48 h, read-out: Activity

Q: `CN1C/C(=C\c2ccc(Cl)cc2)C(=O)[C@]2(C1)[C@@H](c1ccc(Cl)cc1)CN(C)[C@@]21C(=O)N(C)c2ccccc21` was tested. Which growth at 10 µM did it give?
A: The growth at 10 µM was 68.4%.

System: SR
Test: Antitumor activity against human SR cells assessed as cell growth at 10 uM after 48 hrs by sulforhodamine B assay
Assay type: functional
Conditions: read-out: Activity

Q: With `CN1C/C(=C\c2ccc(Cl)cc2)C(=O)[C@]2(C1)[C@@H](c1ccc(Cl)cc1)CN(C)[C@@]21C(=O)N(C)c2ccccc21` as the compound, how does the growth at 10 µM read?
A: Its growth at 10 µM is 70.3%.

System: EKVX
Test: Antitumor activity against human EKVX cells assessed as cell growth at 10 uM after 48 hrs by sulforhodamine B assay
Assay type: functional
Conditions: read-out: Activity

Q: For `CN1C/C(=C\c2ccc(Cl)cc2)C(=O)[C@]2(C1)[C@@H](c1ccc(Cl)cc1)CN(C)[C@@]21C(=O)N(C)c2ccccc21`, which growth at 10 µM is on record?
A: The growth at 10 µM was 42.1%.

System: Rattus norvegicus
Test: Antiinflammatory activity in Wister albino rat assessed as inhibition of carrageenan-induced paw oedema at 50 mg/kg, ip administered 1 hr before carrageenan challenge measured after 1 hr of induction of inflammation relative to control
Assay type: functional
Conditions: route intraperitoneal

Q: For `CN1C/C(=C\c2ccc(Cl)cc2)C(=O)[C@]2(C1)[C@@H](c1ccc(Cl)cc1)CN(C)[C@@]21C(=O)N(C)c2ccccc21`, which inhibition in vivo at 50 mg/kg is on record?
A: The inhibition in vivo at 50 mg/kg was 82.3%.

System: CAKI-1
Test: Antitumor activity against human Caki1 cells assessed as cell growth at 10 uM after 48 hrs by sulforhodamine B assay
Assay type: functional
Conditions: CAKI-1, 48 h, read-out: Activity

Q: With `CN1C/C(=C\c2ccc(Cl)cc2)C(=O)[C@]2(C1)[C@@H](c1ccc(Cl)cc1)CN(C)[C@@]21C(=O)N(C)c2ccccc21` as the compound, how does the growth at 10 µM read?
A: Its growth at 10 µM is 56.6%.

System: Rattus norvegicus
Test: Antiinflammatory activity in Wister albino rat assessed as inhibition of carrageenan-induced paw oedema at 50 mg/kg, ip administered 1 hr before carrageenan challenge measured after 2 hrs of induction of inflammation relative to control
Assay type: functional
Conditions: route intraperitoneal

Q: Which inhibition in vivo at 50 mg/kg does the source give for `CN1C/C(=C\c2ccc(Cl)cc2)C(=O)[C@]2(C1)[C@@H](c1ccc(Cl)cc1)CN(C)[C@@]21C(=O)N(C)c2ccccc21` here?
A: Its inhibition in vivo at 50 mg/kg is 62.2%.

System: OVCAR-3
Test: Antitumor activity against human OVCAR-3 cells assessed as cell growth at 10 uM after 48 hrs by sulforhodamine B assay
Assay type: functional
Conditions: OVCAR-3, 48 h, read-out: Activity

Q: Which growth at 10 µM does the source give for `CN1C/C(=C\c2ccc(Cl)cc2)C(=O)[C@]2(C1)[C@@H](c1ccc(Cl)cc1)CN(C)[C@@]21C(=O)N(C)c2ccccc21` here?
A: Its growth at 10 µM is 60.5%.

System: IGROV-1
Test: Antitumor activity against human IGROV1 cells assessed as cell growth at 10 uM after 48 hrs by sulforhodamine B assay
Assay type: functional
Conditions: IGROV-1, 48 h, read-out: Activity

Q: Which growth at 10 µM does the source give for `CN1C/C(=C\c2ccc(Cl)cc2)C(=O)[C@]2(C1)[C@@H](c1ccc(Cl)cc1)CN(C)[C@@]21C(=O)N(C)c2ccccc21` here?
A: The growth at 10 µM was 92.1%.

System: Malme-3M
Test: Antitumor activity against human MALME-3M cells assessed as cell growth at 10 uM after 48 hrs by sulforhodamine B assay
Assay type: functional
Conditions: read-out: Activity

Q: `CN1C/C(=C\c2ccc(Cl)cc2)C(=O)[C@]2(C1)[C@@H](c1ccc(Cl)cc1)CN(C)[C@@]21C(=O)N(C)c2ccccc21` was tested. Which growth at 10 µM did it give?
A: Its growth at 10 µM is 73.5%.

System: DU-145
Test: Antitumor activity against human DU145 cells assessed as cell growth at 10 uM after 48 hrs by sulforhodamine B assay
Assay type: functional
Conditions: DU-145, 48 h, read-out: Activity

Q: Which growth at 10 µM does the source give for `CN1C/C(=C\c2ccc(Cl)cc2)C(=O)[C@]2(C1)[C@@H](c1ccc(Cl)cc1)CN(C)[C@@]21C(=O)N(C)c2ccccc21` here?
A: Its growth at 10 µM is 88.4%.
